The values below come from patent US20230381154A1, “TREATMENT OF BREAST CANCER USING COMBINATION THERAPIES COMPRISING GDC-9545 AND ABEMACICLIB OR RIBOCICLIB” (Genentech, Inc., priority 2021, published 2023).

One data set concerns ESR1-mutant. Kind of data set: in vitro cell and biochemical assays, ESR1-mutant context. The text has this: (§1) Furthermore, the lower plasma protein binding of GDC-9545 provides higher free concentration of GDC-9545 than fulvestrant.
In a further data set the target is T1, wild-type ER (Homo sapiens, UniProt P03372).
T1 sequence (P03372 1-595): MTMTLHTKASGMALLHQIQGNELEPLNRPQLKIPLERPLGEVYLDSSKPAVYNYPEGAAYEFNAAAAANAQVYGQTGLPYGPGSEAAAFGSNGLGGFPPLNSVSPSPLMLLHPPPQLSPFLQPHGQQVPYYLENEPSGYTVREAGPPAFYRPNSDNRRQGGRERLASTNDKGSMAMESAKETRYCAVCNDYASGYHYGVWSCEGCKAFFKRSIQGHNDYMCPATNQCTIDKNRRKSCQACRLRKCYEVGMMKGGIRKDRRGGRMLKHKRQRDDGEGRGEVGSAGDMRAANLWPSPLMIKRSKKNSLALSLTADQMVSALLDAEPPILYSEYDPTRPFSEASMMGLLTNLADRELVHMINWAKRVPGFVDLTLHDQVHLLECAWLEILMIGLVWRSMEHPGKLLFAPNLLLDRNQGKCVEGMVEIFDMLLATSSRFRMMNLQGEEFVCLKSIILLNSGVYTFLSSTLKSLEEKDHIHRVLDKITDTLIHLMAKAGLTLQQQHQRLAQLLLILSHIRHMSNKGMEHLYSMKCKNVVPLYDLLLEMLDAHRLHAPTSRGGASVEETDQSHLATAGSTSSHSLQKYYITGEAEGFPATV
Kind of data set: in vitro cell and biochemical assays, wild-type context.
Excerpt: as §1

Data set [1] is described as follows: human steady-state total drug exposure, GDC-9545 versus fulvestrant. In kind it is in vivo. To be noted: GDC-9545 30 mg QD versus fulvestrant 500 mg IM monthly.
Excerpt: as §1

Data set [2] can be described thus: plasma protein binding and free concentration, GDC-9545 versus fulvestrant. The data set is classed as in vitro ADME.
Excerpt: as §1

A further data set has as its system xenograft models. Description: xenograft models, efficacy. In kind it is in vivo. To be noted: fulvestrant dosed according to a clinically relevant dosing scheme.
Excerpt: as §1

The subject of data set [3] is ER+ metastatic breast cancer. The note with it: frontline patients, NCT01602380; cited from earlier work.
In data set [4] the test system is endocrine-resistant tumors. The note with it: cited from earlier work.
The target of the next data set is CDK4 (Homo sapiens, UniProt P11802). To be noted: cited from earlier work.
Sequence of CDK4 (P11802 whole entry): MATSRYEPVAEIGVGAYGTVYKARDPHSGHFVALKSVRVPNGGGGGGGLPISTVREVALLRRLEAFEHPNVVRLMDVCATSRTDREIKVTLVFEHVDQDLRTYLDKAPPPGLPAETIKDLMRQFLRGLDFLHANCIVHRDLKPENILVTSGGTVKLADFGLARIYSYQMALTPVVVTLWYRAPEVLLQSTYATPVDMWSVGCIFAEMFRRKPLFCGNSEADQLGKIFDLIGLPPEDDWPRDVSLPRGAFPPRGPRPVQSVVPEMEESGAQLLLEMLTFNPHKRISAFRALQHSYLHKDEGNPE
Sequence of CDK4 (P24385 whole entry partner): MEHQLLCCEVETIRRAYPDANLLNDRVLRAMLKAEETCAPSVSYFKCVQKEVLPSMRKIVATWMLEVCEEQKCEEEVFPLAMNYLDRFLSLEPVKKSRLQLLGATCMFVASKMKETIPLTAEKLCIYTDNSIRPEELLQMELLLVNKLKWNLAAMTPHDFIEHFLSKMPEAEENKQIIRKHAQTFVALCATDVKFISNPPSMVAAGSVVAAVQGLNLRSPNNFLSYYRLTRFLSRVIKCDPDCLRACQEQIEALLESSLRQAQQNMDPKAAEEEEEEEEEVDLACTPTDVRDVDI

For the compound `C[C@@H]1Cc2c([nH]c3ccccc23)[C@@H](c2c(F)cc(NC3CN(CCCF)C3)cc2F)N1CC(F)(F)CO` [GDC-9545, 3-((1R,3R)-1-(2,6-difluoro-4-((1-(3-fluoropropyl)azetidin-3-yl)amino)phenyl)-3-methyl-1,3,4,9-tetrahydro-2H-pyrido[3,4-b]indol-2-yl)-2,2-difluoropropan-1-ol], the “potency relative to fulvestrant” value in the data set with ESR1-mutant was “up to 10 times”. Besides, the “potency relative to fulvestrant” value on wild-type ER was “up to 10 times”. Further, the “steady-state total drug exposure relative to fulvestrant” value in data set [1] is “approximately 10 fold”. For the same compound, in data set [2], the “free concentration compared with fulvestrant” value is reported as “higher” and the “plasma protein binding compared with fulvestrant” value is “lower”.

As to `C[C@]12CC[C@@H]3c4ccc(O)cc4C[C@@H](CCCCCCCCC[S+]([O-])CCCC(F)(F)C(F)(F)F)[C@H]3[C@@H]1CC[C@@H]2O` (stereo partly drawn) [Fulvestrant], in the data set with xenograft models, the “efficacy in xenograft models compared with GDC-9545” value is given as “less efficacious”. Also, the “clinical benefit versus anastrozole” value in data set [3] is reported as “benefit over anastrozole”.

Turning to “(2-Pyrimidinamine, N-[5-[(4-ethyl-1-piperazinyl)methyl]-2-pyridinyl]-5-fluoro-4-[4-fluoro-2-methyl-1-(1-methylethyl)-1H-benzimidazol-6-yl] [abemaciclib]”, in data set [4], the single-agent activity result is given as “single-agent activity”. Further, the “selectivity CDK4 versus CDK6” value at CDK4 is listed as “more selective for CDK4 than CDK6”.
